Measured values reported in EP3305290B1, “[…] […] FOR USE IN THE TREATMENT OF VIRAL INFECTIONS” (priority 2016, dated 2018).
Entries after “also recorded” stand apart in the source; their conditions may differ. Where two headings read alike, the source gives them in different places.

Assays:
[1] = tested on: EBOV NP protein; format: cell-based, Zaire Ebola virus (EBOV) strain Mayinga
[2] = Cell toxicity (MTT) in PBMCs; conditions: human
[3] = tested on: Huh-7 cells; experiment: Cell morphology of Huh-7 cells by light microscopy; format: cell-based, human; conditions: 10 nM, three days
[4] = tested on: poliovirus; experiment: microbe, parasite or virus in culture; format: cell-based, Poliovirus Typ 1 (strain Mahoney; PV)
[5] = tested on: Huh-7 cells; experiment: WST-1 proliferation assay of Huh-7 cells
[6] = in vitro; conditions: human
[7] = tested on: poliovirus; experiment: microbe, parasite or virus in culture; format: cell-based, Poliovirus Typ 1 (strain Mahoney; PV); conditions: Enterovirus C
[8] = tested on: HCoV-229E proteins N and nsp8; experiment: Westernblot analysis, Method 2, HCoV-229E proteins N and nsp8; format: cell-based
[9] = tested on: rhinovirus A1; experiment: organism not typed; format: cell-based, human Rhinovirus 1A (HRV1A); conditions: for EC50: MRC5, 24 h
[10] = tested on: MERS-CoV; experiment: microbe, parasite or virus in culture; format: cell-based, MERS-CoV (EMC/2012)
[11] = tested on: 5'-UTR from MERS-CoV; format: cell-based
[12] = tested on: HCoV-229E; experiment: microbe, parasite or virus in culture; format: cell-based, Human Coronavirus 229E (HCoV-229E)
[13] = tested on: viral dsRNA and nsp8; experiment: Immunofluorescence of replication/transcription complexes in HCoV-229E infected MRC-5 cells; format: cell-based; conditions: MOI 3, 12 h p.i.
[14] = tested on: proto-oncogenic kinase PIM1; experiment: Westernblot of PIM1 in primary macrophages; format: cell-based, human
[15] = tested on: MERS-CoV; experiment: microbe, parasite or virus in culture; format: cell-based, MERS-CoV (EMC/2012); remark: listed apart in the source
[16] = tested on: EBOV proteins VP40, NP and GP; format: cell-based, Zaire Ebola virus (EBOV) strain Mayinga
[17] = tested on: HCoV-229E; experiment: microbe, parasite or virus in culture; format: cell-based, Human Coronavirus 229E (HCoV-229E); conditions: Human coronavirus 229E
[18] = tested on: Coronaviruses; experiment: organism not typed; format: cell-based; conditions: MRC5, read-out: EC50-values
[19] = tested on: EBOV; format: cell-based, Zaire Ebola virus (EBOV) strain Mayinga
[20] = tested on: 5'-UTRs of Ebola mRNAs; experiment: cells; format: cell-based, EBOV; conditions: for inhibition at 0.01 µM: Zaire ebolavirus
[21] = tested on: 5'-UTRs of all seven EBOV mRNAs; format: cell-based
[22] = tested on: EBOV; format: cell-based, Zaire Ebola virus (EBOV) strain Mayinga; remark: listed apart in the source
[23] = tested on: Rhinovirus 1A; experiment: microbe, parasite or virus in culture; format: cell-based, human Rhinovirus 1A (HRV1A); conditions: for EC50: Enterovirus, HeLa
[24] = tested on: 5'-UTR from HCoV-229E; format: cell-based
[25] = tested on: primary macrophages; experiment: WST-1 viability assay of primary macrophages
[26] = Cell toxicity (MTT) in hAEC; conditions: human

## COC(=O)[C@H]1[C@@H](O)[C@@]2(O)c3c(OC)cc(O[C@@H]4O[C@@H]([C@H](O)CO)CO[C@H]4OC)cc3O[C@@]2(c2ccc(OC)cc2)[C@@H]1c1ccccc1 [Silvestrol]
[1]
  expression level of the EBOV NP protein: potent downregulation; also recorded: strongly decreased levels
[2]
  CC50: 400 nM
[3]
  cell morphology: without changing cell morphology
[4]
  fold less sensitive / less efficient compared to MERS-CoV and HCoV-229E: about 10 fold
[4]; Enterovirus C, MRC5, 24 h
  EC50: 20 nM
[5]; higher concentrations up to 100 nM, compared to DMSO control
  effect on proliferation of Huh-7 cells: weakly affected; also recorded: weak effects on proliferation
[5]; up to 10 nM Silvestrol, WST-1, 48 h
  effect on proliferation of Huh-7 cells: no obvious effects on proliferation; also recorded: No effect of Silvestrol on proliferation
[6]; CC50
  CC50: 1700 nM
[6]; CC50 / cell toxicity
  CC50: > 1000 nM
[7]; Vero C1008
  EC50: ~100 nM
[7]; Vero C1008, 24 h, read-out: effective dose (EC50)
  EC50: 100 nM
[8]; HCoV-229E infected primary MRC-5 cells, 10 nM, 12 h and 48 h p.i.
  level of N-protein: disappears
[8]; Huh-7 infected cells, 10 nM
  HCoV-229E proteins N and nsp8: detectable
[8]; Huh-7 infected cells, 100 nM
  N-protein: only very low amounts
  nsp8: completely absent
[9]
  fold less sensitive compared to the analyzed coronaviruses: about 100 fold
  EC50: 100 nM
[9]; Rhinovirus A
  EC50: 100 nM
[10]
  selectivity index: 166
[10]; Middle East respiratory syndrome-related coronavirus, Epithelial cell, 48 h
  EC50: 3 nM
[11]
  decrease of luciferase activity: ~40%
[12]
  EC50 fold lower in MRC-5 cells compared to infected Huh-7 cells: about 10 fold
  selectivity index (CC50/EC50): 566
[12]; Human coronavirus 229E, MRC5, 24 h
  EC50: 3 nM
[13]; 10 nM
  levels of double-stranded viral RNA and nsp8 (RTC markers): drop down
[13]; 100 nM
  levels of double-stranded viral RNA and nsp8 (RTC markers): nearly no viral dsRNA or nsp8 can be detected
[14]; primary macrophages, 10 nM
  PIM1 levels: strongly decreased levels
[14]; single dose 10 nM, macrophages
  duration of inhibitory effect on PIM1 levels: at least 5 days
[14]; single dose 10 nM, macrophages, up to 5 days
  cellular β-Actin levels: without affecting cellular β-Actin levels
[15]
  selectivity index (CC50/EC50): 1538
[15]; Middle East respiratory syndrome-related coronavirus, MRC5, 24 h
  EC50: 1.3 nM
[16]
  EBOV protein VP40 levels: strong reduction of VP40 levels; also recorded: inhibits the expression
  EBOV proteins NP and GP levels: Downregulation
  cellular protein tubulin level: not affected
[17]; Huh-7
  EC50: 40 nM
[17]; Huh-7, 24 h, read-out: effective dose (EC50)
  EC50: 40 nM
[18]
  EC50: 1 to 3 nM
[19]
  antiviral effect (EBOV titer): comparable antiviral effect
  inhibition of EBOV infection (viral titers): substantially inhibits EBOV infection; also recorded: inhibits viral propagation efficiently; also recorded: strongly inhibits EBOV replication
[20]
  effect on IRES-driven renilla luciferase activity: no obvious effect
[20]; HepG2, read-out: inhibitory effect on firefly luciferase activity
  inhibition at 0.01 µM: 80%
[20]; HepG2, read-out: inhibitory effect on luciferase levels
  inhibition at 0.01 µM: 30%
[21]
  inhibition of firefly luciferase activity: 23-33%
  reduction of firefly luciferase activity: no significant reduction
[22]
  reduction of viral titers: up to two orders of magnitude
[23]
  EC50 fold higher compared to HCoV-229E in Huh-7: about 10 fold
  EC50: 400 nM
[23]; 24 h, read-out: effective dose (EC50)
  EC50: 400 nM
[24]
  decrease of luciferase activity: ~40%
[25]; Homo sapiens, Primary macrophage, 72 h, read-out: IC50 (WST-1 viability assay), primary macrophages, 0.1 nM - 10 µM, 72 h
  IC50: ~96 nM
[25]; primary macrophages, WST-1
  concentration with essentially no sign of toxicity: at least 50 nM
[26]
  CC50 at 48 h: 500 nM
